Reference: patent US6969702B2, “Compounds and methods for increasing neurogenesis” (priority 2002, dated 2005)
Marks after values point to notes of the source that are not given here. Ends that are not written are not given here.

What was measured:
[1] = system: newborn cells (BrdU positive) in sub ventricular zone and dentate gyrus; assay: In vivo progenitor cell proliferation (BrdU); design: species or system Wistar rats; conditions: 10 mg/kg intraperitoneally twice daily 7 days with BrdU
neural stem cells = assay: In vitro proliferation measured with ATP (Example 14); format: cell-based; design: cell proliferation (ATP), fold the level of control cells: dose or concentration left out as unconfirmed
Experimental: To determine proliferation, neurospheres were split and seeded in Neurosphere medium as single cells in 96-well plates, at 10,000 cells/well. The following experiment was performed in sets of four parallel experiments (i.e., performed in quadruplicate) such that the cells may be used for different assays. Substances to be tested were added and cells were incubated at 37° C. for 4 days. Cells were lysed with 0.1 % Triton-X100 in Tris-EDTA buffer. Intracellular ATP was measured using an ATP-SL kit according to the manufacturer's instructions (BioThema, Sweden).

[2] = system: adenylate cyclase in UMR 106-06 cells; conditions: relative to sCT; cited from earlier work
[3] = biological target: dipeptidyl peptidase-IV (DPP-VI) (Homo sapiens, UniProt P27487); conditions: in mammals; cited from earlier work
Chain of dipeptidyl peptidase-IV (DPP-VI) (P27487 whole entry, species assumed): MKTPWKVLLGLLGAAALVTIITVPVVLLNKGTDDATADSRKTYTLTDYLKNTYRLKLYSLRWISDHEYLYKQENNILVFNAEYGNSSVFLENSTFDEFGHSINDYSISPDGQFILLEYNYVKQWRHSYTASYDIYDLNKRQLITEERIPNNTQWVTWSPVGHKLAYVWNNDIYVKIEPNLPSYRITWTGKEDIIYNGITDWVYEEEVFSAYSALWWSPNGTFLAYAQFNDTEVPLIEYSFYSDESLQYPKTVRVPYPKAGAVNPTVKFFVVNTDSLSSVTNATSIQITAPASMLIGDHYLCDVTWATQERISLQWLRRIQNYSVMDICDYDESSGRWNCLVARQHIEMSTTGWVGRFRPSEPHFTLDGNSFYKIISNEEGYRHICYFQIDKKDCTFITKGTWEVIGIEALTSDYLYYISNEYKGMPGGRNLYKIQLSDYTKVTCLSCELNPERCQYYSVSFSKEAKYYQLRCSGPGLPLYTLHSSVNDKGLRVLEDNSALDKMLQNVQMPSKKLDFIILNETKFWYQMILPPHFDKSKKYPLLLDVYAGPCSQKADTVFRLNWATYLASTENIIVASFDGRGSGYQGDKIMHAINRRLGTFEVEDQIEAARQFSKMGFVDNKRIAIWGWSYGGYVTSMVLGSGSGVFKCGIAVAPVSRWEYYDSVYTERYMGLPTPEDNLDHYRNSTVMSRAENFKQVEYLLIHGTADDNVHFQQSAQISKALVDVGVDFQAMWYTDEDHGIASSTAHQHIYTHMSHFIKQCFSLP

[4] = system: cAMP activation in mouse adult neural stem cells; assay: cAMP detection (HitHunter EFC Cyclic AMP Chemiluminescence Assay)
[5] = system: NFAT-Luciferace reporter (Ca^2+); conditions: 100 nM
[6] = system: CREB phosphorylation in mouse adult neural stem cells; format: cell-based; conditions: 100 nM
Adult neural stem cells = assay: Flow cytometry for early neuronal marker Doublecortin; conditions: 100 nM
[7] = system: mouse adult neural stem cells; assay: ATP-assay: proliferation (ATP levels) of neurosphere-derived cells
[8] = system: CREB phosphorylation in human adult neural stem cells; format: cell-based; conditions: 100 nM

CC[C@H](C)[C@H](NC(=O)[C@H](C)NC(=O)[C@@H](NC(=O)[C@H](CCC(N)=O)NC(=O)[C@@H]1CCCN1C(=O)[C@H](Cc1ccccc1)NC(=O)[C@@H](NC(=O)[C@H](Cc1c[nH]cn1)NC(=O)[C@H](Cc1ccccc1)NC(=O)[C@H](CCCCN)NC(=O)[C@H](CC(N)=O)NC(=O)[C@H](Cc1ccccc1)NC(=O)[C@H](CC(=O)O)NC(=O)[C@H](CCC(N)=O)NC(=O)[C@@H](NC(=O)[C@H](Cc1ccc(O)cc1)NC(=O)[C@@H](NC(=O)CNC(=O)[C@H](CC(C)C)NC(=O)[C@H](CCSC)NC(=O)[C@@H]1CSSC[C@H](N)C(=O)NCC(=O)N[C@@H](CC(N)=O)C(=O)N[C@@H](CC(C)C)C(=O)N[C@@H](CO)C(=O)N[C@@H]([C@@H](C)O)C(=O)N1)[C@@H](C)O)[C@@H](C)O)[C@@H](C)O)[C@@H](C)O)C(=O)NCC(=O)N[C@H](C(=O)NCC(=O)N[C@@H](C)C(=O)N1CCC[C@H]1C(N)=O)C(C)C [calcitonin]
number of newborn cells (BrdU positive compared to sham injected) [1]: significant increase
cell proliferation (ATP), fold the level of control cells (neural stem cells; 4 days): 2.5 fold
EC50 (neural stem cells; neural stem cell cultures, read-out: EC50 value (proliferation dose-response curve, FIG. 3)): 0.03 nM

CSNLSTCVLGRLSKDLHRLQTFPRTNTGAGVP (cysteine pairing not given here) [[Arg11, 18, Lys14]-sCT]
potency in activating adenylate cyclase [2]: equivalent to that of sCT

His-Asp-Glu-Phe-Glu-Arg-His-Ala-Glu-Gly-Thr-Phe-Thr-Ser-Asp-Val-Ser-Ser-Tyr-Leu-Glu-Gly-Gln-Ala-Ala-Lys-Glu-Phe-Ile-Ala-Trp-Leu-Val-Lys-Gly-Arg-Gly [GLP-1]
halftime of degradation [3]: less than 2 min

cholera toxin
cAMP (pmol/well) [4]: 0.07 ± 0.01 pmol/well
Fold Induction cAMP ([4]; 10 nM): 3.1*** fold
Fold Induction NFAT [5]: 1.4** fold
NFAT Luciferace units [5]: 11.6 ± 1.0 Luciferace units
CREB phosphorylation [6]: up-regulation of CREB phosphorylation
Fold Induction (Doublecortin-positive cells) (Adult neural stem cells): 2.6 fold
% Doublecortin-positive cells (Adult neural stem cells; 4 days): 6.7%
proliferation of neural stem cells [7]: increase
ATP (nM ATP/well) ([7]; 100 nM): 12.9 ± 1.6 nM ATP/well
Fold Induction ATP ([7]; 100 nM): 1.4* fold
Fold Induction ATP ([7]; 100 nM, 4 days): 1.4* fold
CREB phosphorylation [8]: up-regulation of CREB phosphorylation
